Experimental data: US20080003311A1, “Rosmarinus extracts for inhibiting/treating skin aging” (SOCIETE L'OREAL, S.A., priority 1999, published 2008)

Test system: normal human dermal fibroblasts
Experiment: Incorporation of radioactive proline (collagen synthesis) into cultures of normal human dermal fibroblasts
Type: cell-based
Protocol: The study was conducted by measuring the incorporation of radioactive proline into cultures of normal human dermal fibroblasts. The fibroblast cultures were prepared according to conventional cell culture methods, i.e., in MEM/M199 medium marketed by Gibco in the presence of sodium bicarbonate (1.87 mg/ml), of L-glutamine (2 mM), of penicillin (50 IU/ml) and of 10% of fetal calf serum (Gibco). The assay was carried out on cell cultures at 80% confluency, in a 24-well plate. […] The labeling with tritiated proline (L-[2,3-^3H]-proline sold by Amersham, 33 (μCi/ml) was carried out for 24 hours. The level of tritiated proline incorporated was measured at the end of the assay by acid precipitation of the proteins on filters and liquid scintillation counting. […] A positive control (vitamin C at 20 (g/ml) known to stimulate collagen synthesis was introduced into the assay as a reference. The results of this assay, expressed as percentages of activation, are reported in the following Table I: […]

SMILES: O=C1O[C@H]([C@@H](O)CO)C(O)=C1O [Vitamin C]
- cpm (tritiated proline incorporated) (vitamin C at 20 (g/ml, positive control), untreated cells 7498 cpm): 13091 cpm
- percentage of activation of proline incorporation (vitamin C at 20 (g/ml, versus untreated cells)): 75%
